Assay results from publication PMC3816525 (Investigational new drugs, 2011).

What was measured:
[1] = human, in vivo
mantle cell lymphoma = details: phase II, single agent; cited from earlier work
glioblastoma multiforme = details: two trials in glioblastoma multiforme; cited from earlier work
advanced breast cancer = details: heavily pretreated advanced breast cancer; cited from earlier work
clinical [2] = details: human, in vivo, AUC(0–24h)
[3] = human, in vivo; remark: listed apart in the source
clinical [4] = details: human, in vivo, AUC(0–24h); remark: listed apart in the source
[5] = cited from earlier work

CO[C@H]1C[C@@H]2CC[C@@H](C)[C@@](O)(O2)C(=O)C(=O)N2CCCC[C@H]2C(=O)O[C@H]([C@H](C)C[C@@H]2CC[C@@H](OC(=O)C(C)(CO)CO)[C@H](OC)C2)CC(=O)[C@H](C)/C=C(\C)[C@@H](O)[C@@H](OC)C(=O)[C@H](C)C[C@H](C)/C=C/C=C/C=C/1C [temsirolimus]
Change of AUC(0-24h) on Day 15 compared to day 1 [1]: 66%
Median TTP (mantle cell lymphoma): 6 months
Overall response rate (mantle cell lymphoma): 38–41%
TTP (glioblastoma multiforme): 9–38 weeks
Partial response rate (advanced breast cancer): 9.2%
AUC(0-t) (clinical [2]; Day 3): 68.3 ± 20.4 ng·h/mL
AUC(0-t) (clinical [2]; po, 30 mg, Day 1): 83.9 ± 27.6 ng·h/mL

CCOc1cc2ncc(C#N)c(Nc3ccc(F)c(Cl)c3)c2cc1NC(=O)/C=C/CN(C)C [EKB-569]
Accumulation: AUC(0–24h) Day 6/Day 1 [3]: 1.78±0.56
Accumulation: AUC(0–24h) Day 7/Day 6 [3]: 1.19±0.28
Accumulation: AUC(0–24h) Day 9/Day 6 [3]: 1.40±0.33
Increase of AUC(0-24h) on Day 7 [3]: about 19%
AUC(0-t) (clinical [4]; Day 6): 378 ± 144 ng·h/mL
AUC(0-t) (clinical [4]; Day 7): 426 ± 127 ng·h/mL
AUC(0-t) (clinical [4]; Day 9): 493 ± 112 ng·h/mL
MTD, single agent ([5]; advanced solid tumors, DLT grade 3 diarrhea): 75 mg daily
Recommended dose in combination with FOLFIRI ([5]; in vivo): 25 mg daily

CCOc1cc2ncc(C#N)c(Nc3ccc(F)c(Cl)c3)c2cc1NC(=O)/C=C/CNC [N-desmethyl EKB-569]
AUC(0–24h), Day 6 [3]: 52.7 ± 61.2 ng·h/mL
AUC(0–24h), Day 7 [3]: 60.8 ± 52.8 ng·h/mL
AUC(0–24h), Day 9 [3]: 75.2 ± 51.0 ng·h/mL

CO[C@H]1C[C@@H]2CC[C@@H](C)[C@@](O)(O2)C(=O)C(=O)N2CCCC[C@H]2C(=O)O[C@H]([C@H](C)C[C@@H]2CC[C@@H](O)[C@H](OC)C2)CC(=O)[C@H](C)/C=C(\C)[C@@H](O)[C@@H](OC)C(=O)[C@H](C)C[C@H](C)/C=C/C=C/C=C/1C [sirolimus]
Accumulation: AUC(0–24h) Day 3/Day 1 [1]: 1.37±0.44
Accumulation: AUC(0–24h) Day 15/Day 1 [1]: 0.99±0.27
Accumulation: AUC(0–24h) Day 17/Day 3 [1]: 1.78±0.63
Change of AUC(0-24h) on Day 15 compared to day 1 [1]: similar
AUC(0-t) (clinical [2]; Day 3): 437 ± 116 ng·h/mL
AUC(0-t) (clinical [2]; po, 30 mg, Day 1): 348 ± 158 ng·h/mL
